Laboratory results published in PubChem BioAssay (NCI).
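Step 1: Grow cells in 96-well plates. Step 2: Expose to compound for 48 hours at 5 concentrations. Step 3: Interpolate endpoints linearly; if unreached, use highest concentration. At the TGI there is no net growth.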 Where a SMILES comes first, the peptide text is derived from it. The star is where a group is joined. Fmoc = O=C(OCC1c2ccccc2-c2ccccc21)*; OBn = c1ccc(CO*)cc1; tBu = CC(C)(C)*

How the values were obtained:
Test in all cases: DTP human tumour cell line panel, 48 h
OVCAR-8 ovarian = test system: OVCAR-8 ovarian
NCI/ADR-RES ovarian = test system: NCI/ADR-RES ovarian
HOP-92 NSCLC = test system: HOP-92 NSCLC
HCT-15 colon = test system: HCT-15 colon
ACHN renal = test system: ACHN renal
HOP-62 NSCLC = test system: HOP-62 NSCLC
SF-268 CNS = test system: SF-268 CNS
MDA-MB-435 = test system: MDA-MB-435
HL-60(TB) leukemia = test system: HL-60(TB) leukemia
COLO 205 colon = test system: COLO 205 colon

SMILES	TGI (OVCAR-8 ovarian)	TGI (NCI/ADR-RES ovarian)	TGI (HOP-92 NSCLC)	TGI (HCT-15 colon)	TGI (ACHN renal)	TGI (HOP-62 NSCLC)	TGI (SF-268 CNS)	TGI (MDA-MB-435)	TGI (HL-60(TB) leukemia)	TGI (COLO 205 colon)
N=C(N)c1ccc(N=Nc2c(O)c(C(=O)Nc3ccccc3)cc3ccccc23)cc1	34.5 µM	> 100 µM	33.8 µM	> 48.8 µM	> 53.6 µM	41 µM	55.4 µM	> 100 µM	55.1 µM	> 76.9 µM
CC1CC[C@@]2(OC1)OC1C[C@H]3[C@@H]4CC=C5C[C@@H](OC6OC(CO)C(OC7OC(CO)C(O)C(O)C7O)C(O)C6OC6OC(C)C(O)C(O)C6O)CC[C@]5(C)[C@H]4CC[C@]3(C)C1[C@@H]2C (stereo not given in full)	1.79 µM	5.71 µM	2.12 µM	6.95 µM	4.4 µM	1.6 µM	1.2 µM	1.29 µM	1.97 µM	0.91 µM
CSC1=C(C)C(/C=N/Nc2ccc([N+](=O)[O-])cc2)=C(C)N(c2ccccc2)S1(=O)=O	> 100 µM	> 100 µM	> 100 µM	> 100 µM	> 100 µM	> 100 µM	> 100 µM	> 100 µM	17.5 µM	> 100 µM
O=c1c2ccccc2n2nnc3ccc(NCCNCCO)c1c32	4.74 µM	5.96 µM	6.18 µM	9.42 µM	5.89 µM	8.91 µM	6.46 µM	10.8 µM	5.24 µM	4.09 µM
COC(=O)c1sc2c(Cl)c(Cl)sc2c1Cl	> 100 µM	> 100 µM	> 100 µM	> 100 µM	> 100 µM	> 100 µM	> 100 µM	> 100 µM	> 100 µM	> 100 µM
COC(=O)[C@]1(c2cc3ccccc3[nH]2)CC2CNC1C1OC(C)(C)OC21 (stereo not given in full)	> 100 µM	> 100 µM	> 100 µM	> 100 µM	> 100 µM	> 100 µM	> 100 µM	> 100 µM	> 100 µM	> 100 µM
CN(CC(=O)O)c1ncc2c(n1)-c1ccccc1CC2	> 100 µM	> 100 µM	> 100 µM	> 100 µM	> 100 µM	> 100 µM	> 100 µM	> 100 µM	> 100 µM	> 100 µM
CCOC(=O)NC(Nc1ccc(C(=O)O)cc1)(C(F)(F)F)C(F)(F)F	> 100 µM	> 100 µM	> 100 µM	> 100 µM	> 100 µM	> 100 µM	> 100 µM	> 100 µM	> 100 µM	> 100 µM
C=C(C)C1CCC2(C)C1CCC1(C)C2CCC2C3(C)C4OC(OC4=O)C(C)(C)C3CCC21C (stereo not given)	> 100 µM	> 100 µM	> 100 µM	> 100 µM	> 100 µM	> 100 µM	> 100 µM	> 100 µM	80.1 µM	> 100 µM
COc1cc(C2C3=C(NC(=O)C2C#N)c2ccc4ccccc4c2OCC3)cc(OC)c1OC (stereo not given)	> 100 µM	> 100 µM	29.7 µM	> 100 µM	30.2 µM	50.5 µM	64.1 µM	> 100 µM	> 100 µM	33.1 µM
C=C(CCC(=O)N(CCc1c[nH]c2ccccc12)C(=O)c1ccccc1CSCC)C(=O)OC	> 100 µM	> 100 µM	> 100 µM	> 100 µM	> 100 µM	> 100 µM	> 100 µM	> 100 µM	> 100 µM	54.6 µM
CCOC(=O)c1c(-c2ccc(Cl)cc2)c(C#N)c(=S)n(C2OC(COC(C)=O)C(OC(C)=O)C(OC(C)=O)C2OC(C)=O)c1C (stereo not given)	> 100 µM	> 100 µM	> 20.1 µM	> 100 µM	> 100 µM	> 100 µM	> 100 µM	> 100 µM	> 100 µM	> 100 µM
CN=C1C=C(/N=C2/C=C(N/C(=C\C#N)C(C)(C)O)OC2(C)C)OC1(C)C	> 47.2 µM	> 62.6 µM	> 71.5 µM	> 100 µM	> 100 µM	> 100 µM	> 100 µM	> 100 µM	5.83 µM	> 100 µM
CC1CC(C)(C)CC(OCCN2CCCCC2)(c2ccccc2)C1 (stereo not given)	30.3 µM	33.9 µM	21.7 µM	27.5 µM	30.3 µM	26.5 µM	23.9 µM	24.7 µM	27.9 µM	21.8 µM
CCOC(=O)/C=C(/OCC)[C@@H]1C(C(=O)c2ccc(Cl)cc2)[C@@H]1/C(=C\C(=O)OCC)OCC (stereo not given in full)	> 100 µM	> 34 µM	17.9 µM	> 100 µM	> 69.1 µM	> 100 µM	> 100 µM	> 83.8 µM	37.5 µM	27.4 µM
O=c1[nH]c(NCCCCCO)nc2nc[nH]c12	> 100 µM	> 100 µM	> 100 µM	> 100 µM	> 100 µM	> 100 µM	> 100 µM	> 100 µM	> 100 µM	> 100 µM
CC(OC(C)(C)C)C(NC(=O)OCC1c2ccccc2-c2ccccc21)C(=O)NC(Cc1ccccc1)C(=O)OCc1ccccc1 (stereo not given) (Fmoc-Thr(tBu)-Phe-OBn; configuration not given here)	> 100 µM	> 100 µM	> 100 µM	> 100 µM	> 100 µM	> 100 µM	> 100 µM	> 100 µM	> 100 µM	> 100 µM
CC(=O)CCN1CC2CN=NC2(C#N)C1 (stereo not given)	> 100 µM	> 100 µM	> 76.3 µM	> 100 µM	> 88.7 µM	> 100 µM	> 100 µM	> 100 µM	> 62.6 µM	> 100 µM
COc1cc(/C=C2\C(=O)N(c3ccc(Cl)cc3)C(c3ccccc3)S2(=O)=O)cc(OC)c1OC (stereo not given)	> 100 µM	> 100 µM	> 100 µM	> 100 µM	> 100 µM	> 96.7 µM	> 100 µM	23.1 µM	> 100 µM	> 32.8 µM
CCOC(=O)CC1(N)CC2c3ccccc3OC(=O)C2C(=O)N1 (stereo not given)	> 100 µM	> 100 µM	> 100 µM	> 100 µM	> 100 µM	> 100 µM	> 100 µM	> 100 µM	> 100 µM	> 100 µM
